In ChEMBL document CHEMBL1122548, “1-Aryl-3,3-dimethyltriazenes: potential central nervous system active analogues of 5-(3,3-dimethyl-1-triazeno)imidazole-4-carboxamide (DTIC)” (J Med Chem, 1984) one finds logP and ILS data, which are given here for 20 compounds.

Series [1] in a line: Partition coefficient (logP). Format: physicochemical. To be noted: octanol/water.
The test system of series [2] is Mus musculus. The series is described as follows: Maximum increase in life span was measured in B6d2F1 mice after implanting murine leukemia L1210 cells(ic, 10e4 cells) at an intracerebral optimal dose of 40 mg/ (kg day)(qd 1-9). Format: functional.
For series [3], the system named is Mus musculus. The series is described as follows: Maximum increase in life span was measured in B6d2F1 mice after implanting murine leukemia L1210 cells(ip, 10e5 cells) at an intraperitoneal optimal dose of 39 mg/ (kg day)(qd 1-9). Format: functional.
Series [4] relates to Mus musculus. The series is described as follows: Maximum increase in life span was measured in B6d2F1 mice after implanting murine leukemia L1210 cells(ic, 10e4 cells) at an intracerebral optimal dose of 20 mg/ (kg day)(qd 1-9). Format: functional.
Series [5] relates to Mus musculus. The series is described as follows: Maximum increase in life span was measured in B6d2F1 mice after implanting murine leukemia L1210 cells(ip, 10e5 cells) at an intraperitoneal optimal dose of 65 mg/ (kg day)(qd 1-9). Format: functional.
For series [6], the system named is Mus musculus. The series is described as follows: Percent increase in life span was measured in B6C3F1 mice after implanting murine Ependymoblastoma cells(ic) at an intraperitoneal optimal dose of 8 mg/ (kg injection).
Series [7] deals with Mus musculus. The series is described as follows: Maximum increase in life span was measured in B6d2F1 mice after implanting murine leukemia L1210 cells(ic, 10e4 cells) at an intracerebral optimal dose of 80 mg/ (kg day)(qd 1-9). Format: functional.
The subject of series [8] is Mus musculus. Nature of the series: Percent increase in life span was measured in B6C3F1 mice after implanting murine Ependymoblastoma cells(ic) at an intraperitoneal optimal dose of 32 mg/ (kg injection).
For series [9], the system named is Mus musculus. Nature of the series: Maximum increase in life span was measured in B6d2F1 mice after implanting murine leukemia L1210 cells(ip, 10e5 cells) at an intraperitoneal optimal dose of 108 mg/ (kg day)(qd 1-9). Format: functional.
The subject of series [10] is Mus musculus. The series is described as follows: Maximum increase in life span was measured in B6d2F1 mice after implanting murine leukemia L1210 cells(ic, 10e4 cells) at an intracerebral optimal dose of 160 mg/ (kg day)(qd 1-9). Format: functional.
Series [11] relates to Mus musculus. The series is described as follows: Percent increase in life span was measured in B6d2F1 mice after implanting B16 melanoma cells(ic) at an intracerebral (ic) optimal dose of 10-40 mg/ (kg day). Format: functional.
The test system of series [12] is Mus musculus. The series is described as follows: Percent increase in life span was measured in B6C3F1 mice after implanting murine Ependymoblastoma cells(ic) at an intraperitoneal optimal dose of 64 mg/ (kg injection).
Series [13] relates to Mus musculus. Nature of the series: Maximum increase in life span was measured in B6d2F1 mice after implanting murine leukemia L1210 cells(ip, 10e5 cells) at an intraperitoneal optimal dose of 300 mg/ (kg day)(qd 1-9). Type of series: functional.
Series [14] concerns Mus musculus. The series is described as follows: Percent increase in life span was measured in B6d2F1 mice after implanting B16 melanoma cells(ic) at an intracerebral (ic) optimal dose of 40-80 mg/ (kg day). Format: functional.
Series [15] relates to Mus musculus. Nature of the series: Maximum increase in life span was measured in B6d2F1 mice after implanting murine leukemia L1210 cells(ic, 10e4 cells) at an intracerebral optimal dose of 40 mg/(kg day)(qd 1-9). Format: functional.
Series [16] concerns Mus musculus. The series is described as follows: Maximum increase in life span was measured in B6d2F1 mice after implanting murine leukemia L1210 cells(ip, 10e5 cells) at an intraperitoneal optimal dose of 65 mg/(kg day)(qd 1-9). Type of series: functional.
In series [17] the test system is Mus musculus. The series is described as follows: Percent increase in life span was measured in B6C3F1 mice after implanting murine Ependymoblastoma cells(ic) at an intraperitoneal optimal dose of 128 mg/ (kg injection).

As usually defined, the logP is a log measure of how a compound divides between an organic and an aqueous phase. What is called ILS is how much longer treated animals lived than controls. Turning to `CN(C)/N=N/c1cccc(C(N)=O)c1`, the logP in series [1] (read-out: logP) was found to be 1.21. The ILS with Mus musculus [2] is on record as 22%; with Mus musculus [3] it was 50%.

Turning to `CN(C)/N=N/c1ccccc1C(=O)O`, the logP in series [1] (read-out: logP) was -2.66. The figures for the ILS in the series on Mus musculus [4], in the series with Mus musculus [5] and with Mus musculus [6] were 6%, 12% and 2%, respectively.

For `CN(C)/N=N/c1ccc(C(=O)O)cc1`, the logP in series [1] was -1.77. Further, the ILS in the series on Mus musculus [7] was determined as 25%; in the series on Mus musculus [3] it was 41%; in the series with Mus musculus [8] it was 18%.

As for `CN(C)/N=N/c1ccc(Cl)cc1`, in [1] (read-out: logP), the logP came out at 3.3. Moreover, the figures for the ILS in the series with Mus musculus [7] and with Mus musculus [9] were 2% and 26%, respectively.

The compound `CN(C)/N=N/c1[nH]cnc1C(N)=O` [DACARBAZINE] displayed a logP in series [1] of -0.24. The ILS in the series on Mus musculus [10] is 18%; in the series on Mus musculus [9], 50%; in the series with Mus musculus [11], 8%; in the series with Mus musculus [12], 60%.

As to `CN(C)/N=N/c1ccc(Br)cc1`, the logP in series [1] (read-out: logP) came out at 3.45. In the series on Mus musculus [13], this compound yielded an ILS of 0%.

Regarding `COC(=O)c1ccc(/N=N/N(C)C)cc1`, in [1] (read-out: logP), the logP turned out to be 2.77. Further, the ILS stood at 7% with Mus musculus [10], 40% in the series with Mus musculus [3] and 64% with Mus musculus [12].

As to `CN(C)/N=N/c1ccc(I)cc1`, the logP in [1] (read-out: logP) was 3.71. In the series on Mus musculus [13], this compound had an ILS of 5%.

In series [1], `CN(C)/N=N/c1ccc(C(N)=O)cc1` registered a logP of 1.2. The ILS in the series with Mus musculus [10] stood at 45%; with Mus musculus [3] it was 40%; in the series on Mus musculus [14], 30%; in the series on Mus musculus [8], 62%.

As for `COC(=O)c1ccccc1/N=N/N(C)C`, the logP in [1] (read-out: logP) came to 2.72. The ILS in the series with Mus musculus [15] stood at 14%; in the series with Mus musculus [16] it was 11%.

For `CC(=O)c1ccc(/N=N/N(C)C)cc1`, in series [1] (read-out: logP), the logP was 2.19. Also, the ILS in the series with Mus musculus [4] was 5%; with Mus musculus [9], 16%.

As to `COC(=O)c1cccc(/N=N/N(C)C)c1`, the logP in [1] (read-out: logP) came to 2.77. The ILS in the series with Mus musculus [10] amounted to 10%; in the series on Mus musculus [3] it was 30%; in the series with Mus musculus [17] it was 62%.

On to `CN(C)/N=N/c1ccccc1C(N)=O`, for which the ILS in the series with Mus musculus [2] and in the series on Mus musculus [5] was 10% throughout.

For `CN(C)/N=N/c1ccc(F)cc1`, the logP in [1] (read-out: logP) is 2.73. In the series with Mus musculus [13], this compound gave an ILS of 16%.

`CC(=O)c1ccccc1/N=N/N(C)C`: the logP in series [1] (read-out: logP) is 2.19. For the same compound, the ILS with Mus musculus [2] was 9%; in the series on Mus musculus [9], 0%.

As for `CN(C)/N=N/c1c(Br)cccc1Br`, in series [1] (read-out: logP), the logP was determined as 4.31. Further, the values for the ILS with Mus musculus [10] and in the series with Mus musculus [9] were 14% and 44%, respectively.

For the compound `CN(C)/N=N/c1c(Cl)cccc1Cl`, in [1] (read-out: logP), the logP was found to be 4.01. The ILS is given as 12% with Mus musculus [10] and 39% in the series with Mus musculus [9].

Regarding `CN(C)/N=N/c1ccccc1Cl`, the ILS in the series on Mus musculus [7] is recorded as 5%; with Mus musculus [5] it was 21%; in the series on Mus musculus [17], 38%.

For the compound `CN(C)/N=N/c1cccc(Cl)c1`, the logP in series [1] (read-out: logP) is 3.3. Further, the results for the ILS in the series with Mus musculus [2] and with Mus musculus [9] were 7% and 11%, respectively.

Take `CC(=O)c1cccc(/N=N/N(C)C)c1`: the log partition coefficient (logP) in [1] (read-out: logP) worked out at 2.19. The values for the ILS in the series with Mus musculus [2] and with Mus musculus [5] were 6% and 55%, respectively.
